Data set [1] deals with methane emissions from sheep. The data set is described as follows: Example 1: in vivo study on sheep methane emissions (respiration chambers, once-daily drench). Particulars: once-daily drenching, 121.3 mg/day, average of 3 sheep. The method, then:
The trial for testing the effects of Compound 19 on methane emissions from sheep over a 96 hour period in methane measurement chambers was approved by the Grasslands Animal Ethics Committee, and the use of the compounds in animals by the New Zealand Food Safety Authority, as required under ACVM legislation. Three sheep were used for each Compound 19 treatment group. The animals received a general-purpose diet (GP) at 1.5× maintenance energy requirements throughout the trials consisting of 500 g hay, 100 g soy bean meal, 290 g barley, 100 g molasses and 10 g mineral mix. During the time in the respiration chambers the animals had free access to water, with the feed offered twice a day at approximately 9:00 and 16:00 h in equal amounts. Feed refusals were weighed.
The animals were adapted to GP diet for 14 days prior to entering the methane measurement chambers. Rumen contents were sampled by stomach tubing before methane emissions were measured in the respiration chambers and the day after being released from the chambers to allow for the future examination of any effects on volatile fatty acids (VFAs). Rumen samples from stomach tubing were immediately subsampled for short chain fatty acid (SCFA) analysis (1.8 ml). The samples were centrifuged (20,000 g, 10 min, 4° C.). […] SCFA were analysed by a HP 6890 gas chromatograph (Attwood et al., 1998).
After the 14-day acclimatisation period, methane emissions were measured in open circuit respiration chambers as described in Chapter 1 of the technical manual on respiration chamber design (http://www.globalresearchalliance.org/wp-content/uploads/2012/03/GRA-MAN-Facility-BestPract-2012-ch13.pdf). Dry matter intake (DMI, kg/d) was recorded during methane measurements from the weight difference of feed offered and refused. […]
Methane gas outputs for the 96-hour period (first 24 hours for background measurements (Period 1), followed by three days of dosing) in open circuit respiration chambers were determined and are summarised in Table 1.

The subject of data set [2] is methane production in rumen fluid. Put plainly: Rumen in vitro (RIV) assay, methane production from rumen fluid incubations. Particulars: Bos taurus, read-out: RIV % methane reduction +/− SD. In kind it is cell-based, cattle. The method in brief:
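Rumen fluid from two fistulated cattle diluted 12 ml in 48 ml buffer with ryegrass substrate, incubated in sealed bottles at 39° C for 24-48 h in duplicate. Inhibitors added in DMF (stocks 1000-fold above highest assay level); total gas, methane and H2 measured automatically; 30 μM BES positive control, no-inhibitor negative control.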

The subject of data set [3] is female Swiss mice. The data set is described as follows: Toxicity testing in mice according to OECD 423. In kind it is in vivo. Particulars: 300 mg/kg, single dose by oral gavage in corn oil, observed 14 days. The method, then:
The potential toxicology of Compound 19 was tested according to OECD 423. Mice testing used two groups with three mice (female Swiss mice, non-pregnant), all at approximately 8-9 weeks of age. On the day of testing, food was withdrawn 1-2 hours prior to dosing. Following fasting, the animals were weighed and the test substances administered. Access to food was resumed 1-2 hours after administration of the compounds. The compounds were administered in a single dose by oral gavage in corn oil (maximum of 0.3 ml per dose) at the selected dose and the time recorded. The mice were observed individually after dosing at least once during the first 30 minutes, periodically over the first 24 hours, with special attention given to the first 4 hours, and then daily thereafter for a total of 14 days. The mice were weighed every seven days (0, 7 and 14 days). All observations were systematically recorded for each individual animal. These observations included (if present): tremors, convulsions, salivation, diarrhoea, lethargy, sleep, coma, and changes in fur, skin, eyes, mucus membranes, respiration, motor activity and behaviour.

In data set [4] the test system is methane emissions from sheep. Put plainly: Example 2: in vivo study on sheep methane emissions (respiration chambers, dosing in feed twice daily). Particulars: for CH4 Inhibition [%] Average Days 1-3: Average Days 1-3, dose mg/day: Compound 60 412, 69 311, 67 414, 64 344. An excerpt: (§1) The trial for testing the effects of Compound 60, Compound 69, Compound 67 and Compound 64 on methane emissions from sheep over a 96-hour period in methane measurement chambers was approved by the Grasslands Animal Ethics Committee. Three sheep were used for each Compound 60 and Compound 69 treatment group and six sheep were used for each Compound 67 and Compound 64 treatment group. The animals received a general-purpose diet (GP) at 1.5× maintenance energy requirements throughout the trials consisting of 500 g hay, 100 g soybean meal, 290 g barley, 100 g molasses and 10 g mineral mix. During the time in the respiration chambers the animals had free access to water, with the feed offered twice a day at approximately 9:00 and 16:00 h in equal amounts. Feed refusals were weighed.
(§2) The animals were adapted to GP diet for 14 days prior to entering the methane measurement chambers. Rumen contents were sampled by stomach tubing before methane emissions were measured in the respiration chambers and the day after being released from the chambers to allow for the future examination of any effects on volatile fatty acids (VFAs). Rumen samples from stomach tubing were immediately subsampled for short chain fatty acid (SCFA) analysis (1.8 ml). The samples were centrifuged (20,000 g, 10 min, 4° C.). An aliquot of 0.9 ml of the supernatant was collected into 0.1 ml of internal standard (19.8 mM ethylbutyrate in 20% v/v phosphoric acid) for SCFA analysis and stored at −20° C. SCFA samples were thawed and centrifuged (20,000 g, 10 min, 4° C.) and 800 μl of the supernatant was collected into a crimp cap glass vial. SCFA were analysed by a HP 6890 gas chromatograph (Attwood et al., 1998).
After the 14-day acclimatisation period, methane emissions were measured in open circuit respiration chambers as described in Chapter 1 of the technical manual on respiration chamber design (http://www.globalresearchalliance.org/wp-content/uploads/2012/03/GRA-MAN-Facility-BestPract-2012-ch13.pdf). Dry matter intake (DMI, kg/d) was recorded during methane measurements from the weight difference of feed offered and refused. The first day in the chambers (24-hour period; Period 1) served as a control for each animal. For the next three days the sheep received Compound 60, Compound 69, Compound 67 and Compound 64 at 412, 311, 414 and 344 mg per day, respectively (72-hour period; Period 2).
Methane gas outputs for the 96-hour period (first 24 hours for background measurements (Period 1), followed by three days of dosing (Period 2)) in open circuit respiration chambers were determined and are summarised in Table 2.

Data set [5] has as its system methane emissions from cattle. The data set is described as follows: Example 3: in vivo cattle trial on methane emissions (respiration chambers, dosing in feed twice daily).
From the text: as §1, with “various doses of” for “Compound 60, Compound 69, Compound 67 and”, “cattle” for “sheep”, “four 48-hour periods” for “a 96-hour period”, “Four cattle (Friesian dairy heifers, approximately 400 kg)” for “Three sheep”, “of two” for “Compound 60 and Compound 69 treatment group and six sheep were used for each Compound 67 and”, “groups.” for “group.”
as §2
After the 14-day acclimatisation period, methane emissions were measured in open circuit respiration chambers as described in Chapter 1 of the technical manual on respiration chamber design (http://www.globalresearchalliance.org/wp-content/uploads/2012/03/GRA-MAN-Facility-BestPract-012-ch13.pdf). Dry matter intake (DMI, kg/d) was recorded during methane measurements from the weight difference of feed offered and refused. Chamber measurements were made once a week for five weeks. The first period in the chambers (48-hour period; Period 1) served as a control for each animal. […]
Methane gas outputs for the four 48-hour treatment periods (Periods 2-5) in open circuit respiration chambers were determined and are summarised in Table 1. There were little or no feed refusals.

The mark [6] stands for this setting: Day 1, dose mg/day: Compound 60 412, 69 311, 67 414, 64 344.
The mark [7] stands for this setting: Day 2, dose mg/day: Compound 60 412, 69 311, 67 414, 64 344.
Where [8] appears, read: Day 3, dose mg/day: Compound 60 412, 69 311, 67 414, 64 344.

Take `O=C(O)CCC(=O)N1N=C(c2ccc(-c3ccc(Cl)cc3)cc2)CC1c1ccc2nccnc2c1` (stereo not shown) [Compound 19, 4-(3-(4′-Chloro-[1,1′-biphenyl]-4-yl)-5-(quinoxalin-6-yl)-4,5-dihydro-1H-pyrazol-1-yl)-4-oxobutanoic acid]: the “CH4 Inhibition [%]” value in data set [1] (Day 1) was −6.5%. The “CH4 Inhibition [%]” value in data set [1] (Day 2) was found to be 8.9%. Also, in data set [1] (Day 3), the “CH4 Inhibition [%]” value is on record as 11.4%. For the same compound, in data set [2], the inhibition at 2 µM was determined as 5.3 ± 0.6%, the inhibition at 10 µM was found to be 83.7 ± 0.6% and the inhibition at 50 µM is 91.1 ± 0.3%. For the same compound, the “adverse effects (OECD 423)” value in data set [3] is given as “No adverse effects”.

With `CC(C)S(=O)(=O)NC(=O)CCC(=O)N1N=C(c2ccc(-c3ccccc3)cc2)CC1c1ccc2nccnc2c1` (stereo not shown) [Compound 69, 4-(3-([1,1′-Biphenyl]-4-yl)-5-(quinoxalin-6-yl)-4,5-dihydro-1H-pyrazol-1-yl)-N-(isopropylsulfonyl)-4-oxobutanamide], in data set [2], the inhibition at 2 µM is 37.6 ± 5.6%. Further, the inhibition at 10 µM in data set [2] came out at 92.8 ± 1.8%. Moreover, the “CH4 Inhibition [%] Average Days 1-3” value in data set [4] was found to be 23.5%. The “CH4 Inhibition [%]” value in data set [4] (setting [6]) was 11.9%; in data set [4] (setting [7]) it was 26.3%; in data set [4] (setting [8]), 32.4%.

For the compound `O=C(O)CCC(=O)N1N=C(c2ccc(-c3ccc(OC(F)(F)F)c(F)c3)cc2)CC1c1ccc2nccnc2c1` (stereo not shown) [Compound 67, 4-(3-(3′-Fluoro-4′-(trifluoromethoxy)-[1,1′-biphenyl]-4-yl)-5-(quinoxalin-6-yl)-4,5-dihydro-1H-pyrazol-1-yl)-4-oxobutanoic acid], the inhibition at 2 µM in data set [2] was 51.8 ± 8.4%. For the same compound, the inhibition at 10 µM in data set [2] worked out at 92.4 ± 1.5%. The “CH4 Inhibition [%] Average Days 1-3” value in data set [4] is listed as 36.5%. Also, the “CH4 Inhibition [%]” value is given as 24.2% in data set [4] (setting [6]), 36.7% in data set [4] (setting [7]) and 48.6% in data set [4] (setting [8]).

Regarding `O=C(O)c1cccc(N2N=C(c3ccc(Cl)cc3)CC2c2ccc3nccnc3c2)c1` (stereo not shown) [Compound 60, 3-(3-(4-Chlorophenyl)-5-(quinoxalin-6-yl)-4,5-dihydro-1H-pyrazol-1-yl)benzoic acid], in data set [2], the inhibition at 2 µM was 16.1 ± 0.5%. Further, the inhibition at 10 µM in data set [2] amounted to 90.9 ± 1.2%. The inhibition at 50 µM in data set [2] amounted to 97.7 ± 0.6%. Moreover, the “CH4 Inhibition [%] Average Days 1-3” value in data set [4] is reported as 26.2%. Moreover, the “CH4 Inhibition [%]” value turned out to be 26.3% in data set [4] (setting [6]), 20.9% in data set [4] (setting [7]) and 31.2% in data set [4] (setting [8]).

In the case of `CC(C)Oc1ccc(-c2ccc(C3=NN(C(=O)CCC(=O)O)C(c4ccc5nccnc5c4)C3)cc2)cc1` (stereo not shown) [Compound 64, 4-(3-(4′-Isopropoxy-[1,1′-biphenyl]-4-yl)-5-(quinoxalin-6-yl)-4,5-dihydro-1H-pyrazol-1-yl)-4-oxobutanoic acid], the inhibition at 2 µM in data set [2] amounted to 81%. In addition, in data set [2], the inhibition at 10 µM came to 97.5%. For the same compound, the “CH4 Inhibition [%] Average Days 1-3” value in data set [4] was 85.8%. In addition, the “CH4 Inhibition [%]” value was found to be 81.9% in data set [4] (setting [6]); 85.6% in data set [4] (setting [7]); 89.8% in data set [4] (setting [8]); 1.9 ± 5.2% in data set [5] (High dose group, Period 2, 150 mg/day); 15.6 ± 11.7% in data set [5] (High dose group, Period 3, 450 mg/day); 0.5 ± 5.8% in data set [5] (High dose group, Period 4, 450 mg/day). Besides, the “CH4 Inhibition [%]” value was 5.6 ± 3.0% in data set [5] (High dose group, Period 5, 450 mg/day); −4.7 ± 2.9% in data set [5] (Low dose group, Period 2, 50 mg/day); 20.2 ± 9.8% in data set [5] (Low dose group, Period 3, 300 mg/day); 2.5 ± 4.6% in data set [5] (Low dose group, Period 4, 300 mg/day); −1.8 ± 4.0% in data set [5] (Low dose group, Period 5, 300 mg/day).
